Key:
Experiment in all cases: relative viability (nuclei count vs DMSO), 5 days (fraction); higher = more cells survive
[1] = test system: SW 1573
How it was run: (§1)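 Relative viability divides the nuclei count in treated wells by that in vehicle wells. Lung cancer cell lines were seeded in 1536-well plates, dosed by pin tool the next day, and fixed and stained after 5 days in one step with final 0.05% Triton X-100, 1% formaldehyde and 1 ug/ml Hoechst. Dosing was a single drug or a fixed anchor-drug dose plus five library-drug doses (not always all listed) in √10 steps, and values are medians of duplicate plates imaged at 4×.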

[2] = test system: SW 900
How it was run: as §1

[3] = test system: NCI-H838
How it was run: as §1

[4] = test system: UMC-11
How it was run: as §1

[5] = test system: NCI-H23
How it was run: as §1

[6] = test system: NCI-H2023
How it was run: as §1

[7] = test system: LC-2-ad
How it was run: as §1

[8] = test system: NCI-H1975
How it was run: as §1

[9] = test system: NCI-H1651
How it was run: as §1

[10] = test system: NCI-H2009
How it was run: as §1

[11] = test system: NCI-H650
How it was run: as §1

[12] = test system: NCI-H1650
How it was run: as §1

[13] = test system: EPLC-272H
How it was run: as §1

[14] = test system: HARA
How it was run: as §1

[15] = test system: NCI-H2228
How it was run: as §1

[16] = test system: NCI-H2087
How it was run: as §1

[17] = test system: NCI-H2170
How it was run: as §1

[18] = test system: LOU-NH91
How it was run: as §1

[19] = test system: NCI-H2085
How it was run: as §1

[20] = test system: NCI-H441
How it was run: as §1

[21] = test system: PC-3 [JPC-3]
How it was run: as §1

[22] = test system: H3255
How it was run: as §1

CCNC(=O)c1noc(-c2cc(C(C)C)c(O)cc2O)c1-c1ccc(CN2CCOCC2)cc1 [Luminespib] + Nc1nc2[nH]cc(CCc3ccc(C(=O)N[C@@H](CCC(=O)O)C(=O)O)cc3)c2c(=O)[nH]1 [Pemetrexed] (partner 0.2 µM)
relative viability ([1]; first compound 0.002 µM): 0.818
relative viability ([1]; first compound 0.006325 µM): 0.898
relative viability ([1]; first compound 0.02 µM): 0.189
relative viability ([1]; first compound 0.06325 µM): 0.0968
relative viability ([1]; first compound 0.2 µM): 0.0903
relative viability ([2]; first compound 0.002 µM): 0.492
relative viability ([2]; first compound 0.006325 µM): 0.512
relative viability ([2]; first compound 0.02 µM): 0.427
relative viability ([2]; first compound 0.06325 µM): 0.133
relative viability ([2]; first compound 0.2 µM): 0.146
relative viability ([3]; first compound 0.002 µM): 0.265
relative viability ([3]; first compound 0.006325 µM): 0.256
relative viability ([3]; first compound 0.02 µM): 0.284
relative viability ([3]; first compound 0.06325 µM): 0.141
relative viability ([3]; first compound 0.2 µM): 0.177
relative viability ([4]; first compound 0.002 µM): 0.737
relative viability ([4]; first compound 0.006325 µM): 0.843
relative viability ([4]; first compound 0.02 µM): 0.762
relative viability ([4]; first compound 0.06325 µM): 0.322
relative viability ([4]; first compound 0.2 µM): 0.161
relative viability ([5]; first compound 0.002 µM): 0.743
relative viability ([5]; first compound 0.006325 µM): 0.655
relative viability ([5]; first compound 0.02 µM): 0.391
relative viability ([5]; first compound 0.06325 µM): 0.139
relative viability ([5]; first compound 0.2 µM): 0.14
relative viability ([6]; first compound 0.002 µM): 0.28
relative viability ([6]; first compound 0.006325 µM): 0.244
relative viability ([6]; first compound 0.02 µM): 0.0961
relative viability ([6]; first compound 0.06325 µM): 0.071
relative viability ([6]; first compound 0.2 µM): 0.0739
relative viability ([7]; first compound 0.002 µM): 0.251
relative viability ([7]; first compound 0.006325 µM): 0.298
relative viability ([7]; first compound 0.02 µM): 0.26
relative viability ([7]; first compound 0.06325 µM): 0.213
relative viability ([7]; first compound 0.2 µM): 0.205
relative viability ([8]; first compound 0.002 µM): 0.315
relative viability ([8]; first compound 0.006325 µM): 0.307
relative viability ([8]; first compound 0.02 µM): 0.34
relative viability ([8]; first compound 0.06325 µM): 0.137
relative viability ([8]; first compound 0.2 µM): 0.153
relative viability ([9]; first compound 0.002 µM): 0.555
relative viability ([9]; first compound 0.006325 µM): 0.536
relative viability ([9]; first compound 0.02 µM): 0.474
relative viability ([9]; first compound 0.06325 µM): 0.646
relative viability ([9]; first compound 0.2 µM): 0.443
relative viability ([10]; first compound 0.002 µM): 1.16
relative viability ([10]; first compound 0.006325 µM): 0.973
relative viability ([10]; first compound 0.02 µM): 1.17
relative viability ([10]; first compound 0.06325 µM): 0.901
relative viability ([10]; first compound 0.2 µM): 0.0692
relative viability ([11]; first compound 0.002 µM): 0.925
relative viability ([11]; first compound 0.006325 µM): 0.983
relative viability ([11]; first compound 0.02 µM): 0.625
relative viability ([11]; first compound 0.06325 µM): 0.257
relative viability ([11]; first compound 0.2 µM): 0.113
relative viability ([12]; first compound 0.002 µM): 0.404
relative viability ([12]; first compound 0.006325 µM): 0.368
relative viability ([12]; first compound 0.02 µM): 0.426
relative viability ([12]; first compound 0.06325 µM): 0.152
relative viability ([12]; first compound 0.2 µM): 0.137
relative viability ([13]; first compound 0.002 µM): 0.41
relative viability ([13]; first compound 0.006325 µM): 0.266
relative viability ([13]; first compound 0.02 µM): 0.335
relative viability ([13]; first compound 0.06325 µM): 0.133
relative viability ([13]; first compound 0.2 µM): 0.113
relative viability ([14]; first compound 0.002 µM): 0.253
relative viability ([14]; first compound 0.006325 µM): 0.24
relative viability ([14]; first compound 0.02 µM): 0.273
relative viability ([14]; first compound 0.06325 µM): 0.172
relative viability ([14]; first compound 0.2 µM): 0.135
relative viability ([15]; first compound 0.002 µM): 0.346
relative viability ([15]; first compound 0.006325 µM): 0.405
relative viability ([15]; first compound 0.02 µM): 0.257
relative viability ([15]; first compound 0.06325 µM): 0.079
relative viability ([15]; first compound 0.2 µM): 0.136
relative viability ([16]; first compound 0.002 µM): 0.708
relative viability ([16]; first compound 0.006325 µM): 0.627
relative viability ([16]; first compound 0.02 µM): 0.639
relative viability ([16]; first compound 0.06325 µM): 0.152
relative viability ([16]; first compound 0.2 µM): 0.133
relative viability ([17]; first compound 0.002 µM): 0.291
relative viability ([17]; first compound 0.006325 µM): 0.267
relative viability ([17]; first compound 0.06325 µM): 0.219
relative viability ([17]; first compound 0.2 µM): 0.141
relative viability ([18]; first compound 0.002 µM): 0.426
relative viability ([18]; first compound 0.006325 µM): 0.36
relative viability ([18]; first compound 0.02 µM): 0.539
relative viability ([18]; first compound 0.06325 µM): 0.339
relative viability ([18]; first compound 0.2 µM): 0.324
relative viability ([19]; first compound 0.002 µM): 0.908
relative viability ([19]; first compound 0.006325 µM): 0.893
relative viability ([19]; first compound 0.02 µM): 0.698
relative viability ([19]; first compound 0.06325 µM): 0.309
relative viability ([19]; first compound 0.2 µM): 0.261
relative viability ([20]; first compound 0.002 µM): 0.263
relative viability ([20]; first compound 0.006325 µM): 0.309
relative viability ([20]; first compound 0.02 µM): 0.248
relative viability ([20]; first compound 0.06325 µM): 0.153
relative viability ([20]; first compound 0.2 µM): 0.116
relative viability ([21]; first compound 0.002 µM): 0.706
relative viability ([21]; first compound 0.006325 µM): 0.342
relative viability ([21]; first compound 0.02 µM): 0.681
relative viability ([21]; first compound 0.06325 µM): 0.357
relative viability ([21]; first compound 0.2 µM): 0.272
relative viability ([22]; first compound 0.002 µM): 0.579
relative viability ([22]; first compound 0.006325 µM): 0.497
relative viability ([22]; first compound 0.02 µM): 0.529
relative viability ([22]; first compound 0.06325 µM): 0.536
relative viability ([22]; first compound 0.2 µM): 0.335

Reference: the supplement of paper PMC10307832
